Assay results reported in publication PMC4545932, “Inhibition by stabilization: targeting the Plasmodium falciparum aldolase–TRAP complex” (Malaria Journal, 2015).

Biological target: T1, rabbit muscle aldolase (Oryctolagus cuniculus, UniProt P00883)
T1 construct: gene ALDOA
T1 sequence (P00883 2-364): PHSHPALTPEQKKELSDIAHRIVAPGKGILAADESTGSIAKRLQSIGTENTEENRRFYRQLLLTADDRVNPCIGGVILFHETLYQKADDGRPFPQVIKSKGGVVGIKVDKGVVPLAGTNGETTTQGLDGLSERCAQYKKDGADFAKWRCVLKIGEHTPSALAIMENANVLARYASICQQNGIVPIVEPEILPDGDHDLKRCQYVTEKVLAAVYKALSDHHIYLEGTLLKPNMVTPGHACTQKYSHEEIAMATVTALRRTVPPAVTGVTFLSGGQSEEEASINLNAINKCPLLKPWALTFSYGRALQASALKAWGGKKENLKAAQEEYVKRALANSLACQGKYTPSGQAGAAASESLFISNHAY
Assay: coupled NADH assay (alpha-GDH/TPI), […] nm
Assay type: biochemical
Conditions: 2 mM F16P; pH 7.3; 25 °C; no TRAP peptide

In the case of `O=P(O)(O)OC[C@H]1OC(O)(COP(=O)(O)O)[C@@H](O)[C@@H]1O` (stereo partly shown) [fructose 1,6-bisphosphate], the “coupled NADH assay (alpha-GDH/TPI), 340 nm” value is reported as “The assay was performed as described previously, however in the absence of TRAP-peptide”.
